From patent US20250313548A1 (Actio Biosciences, Inc., priority 2023, published 2025)

biological target: human, KCNT1 (Homo sapiens (Human), UniProt Q5JUK3); experiment: FLIPR Tl/K Flux Assay; type: cell-based; conditions: HEK293 cells stably expressing human KCNT1; Tl+ flux stimulated with EC80 of agonist Loxapine
Procedure, shortened: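 Inhibition values come from a Hill-equation fit of % inhibition versus log concentration, using normalized fluorescence (Fmax/Fmin) over a 160 s read. The read followed stimulation with Tl+ plus EC80 agonist loxapine after 30 min compound pre-incubation at 25 °C. Cells were KCNT1-expressing HEK293, dye-loaded 1 h in pH 7.4 HEPES/HBSS with 5 mM probenecid.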

Sequence of human, KCNT1 (Q5JUK3 whole entry): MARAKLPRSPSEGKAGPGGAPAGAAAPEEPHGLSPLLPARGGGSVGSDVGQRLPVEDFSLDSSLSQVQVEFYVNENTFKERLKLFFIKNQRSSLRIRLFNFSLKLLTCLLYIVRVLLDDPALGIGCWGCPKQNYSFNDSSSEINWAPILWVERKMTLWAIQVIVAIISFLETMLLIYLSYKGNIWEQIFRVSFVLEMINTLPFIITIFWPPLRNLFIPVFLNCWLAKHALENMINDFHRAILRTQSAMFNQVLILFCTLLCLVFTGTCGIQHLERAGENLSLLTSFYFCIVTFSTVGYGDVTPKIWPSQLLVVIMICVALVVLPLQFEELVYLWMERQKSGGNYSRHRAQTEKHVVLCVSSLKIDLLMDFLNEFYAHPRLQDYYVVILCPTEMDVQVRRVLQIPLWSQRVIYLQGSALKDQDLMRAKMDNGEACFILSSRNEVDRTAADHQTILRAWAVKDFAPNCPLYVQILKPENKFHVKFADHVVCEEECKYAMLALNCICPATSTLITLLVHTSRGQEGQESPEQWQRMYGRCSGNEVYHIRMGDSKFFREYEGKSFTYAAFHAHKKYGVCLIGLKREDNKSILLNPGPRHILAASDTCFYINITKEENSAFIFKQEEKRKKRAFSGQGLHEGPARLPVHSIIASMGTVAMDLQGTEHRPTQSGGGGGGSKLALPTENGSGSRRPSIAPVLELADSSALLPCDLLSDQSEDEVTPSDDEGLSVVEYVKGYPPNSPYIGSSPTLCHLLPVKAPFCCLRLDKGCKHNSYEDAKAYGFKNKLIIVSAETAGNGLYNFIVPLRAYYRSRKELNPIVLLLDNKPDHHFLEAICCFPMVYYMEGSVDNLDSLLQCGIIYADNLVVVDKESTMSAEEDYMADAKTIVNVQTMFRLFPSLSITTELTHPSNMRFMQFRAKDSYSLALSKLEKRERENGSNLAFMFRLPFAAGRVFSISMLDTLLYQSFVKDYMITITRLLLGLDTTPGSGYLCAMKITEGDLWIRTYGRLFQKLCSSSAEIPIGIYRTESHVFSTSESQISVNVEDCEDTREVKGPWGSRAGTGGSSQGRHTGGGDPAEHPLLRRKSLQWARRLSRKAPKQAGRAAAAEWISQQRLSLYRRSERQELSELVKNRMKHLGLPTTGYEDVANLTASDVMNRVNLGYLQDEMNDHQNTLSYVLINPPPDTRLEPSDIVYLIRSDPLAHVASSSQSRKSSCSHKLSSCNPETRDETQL

Compound | IC50 [µM]
O=C(N[C@H]1CCn2nc(-c3ccnc(C(F)(F)F)c3)cc21)c1cnn(C(F)(F)F)c1C(F)(F)F [Compound I-532a, (S)-1,5-bis(trifluoromethyl)-N-(2-(2-(trifluoromethyl)pyridin-4-yl)-5,6-dihydro-4H-pyrrolo[1,2-b]pyrazol-4-yl)-1H-pyrazole-4-carboxamide] | < 0.25
O=C(N[C@H]1CCn2nc(-c3ccnc(C(F)(F)F)c3)cc21)c1ccnc(OC(F)F)c1 [Compound I-226a, (S)-2-(Difluoromethoxy)-N-(2-(2-(trifluoromethyl)pyridin-4-yl)-5,6-dihydro-4H-pyrrolo[1,2-b]pyrazol-4-yl)isonicotinamide] | < 0.25
COc1cc(-c2cc3n(n2)CCC[C@@H]3NC(=O)c2cc(C(F)(F)F)ccn2)ccn1 [Compound I-365a] | 0.25 to 0.5
N#Cc1cccc(C(=O)N[C@H]2CCCCc3nn(-c4ccnc(C5CC5)c4)cc32)c1 [Compound I-335a, (S)-3-Cyano-N-(2-(2-cyclopropylpyridin-4-yl)-2,4,5,6,7,8-hexahydrocyclohepta[c]pyrazol-4-yl)benzamide] | < 0.25
O=C(NC1CCCc2nn(-c3ccnc(C(F)(F)F)c3)cc21)c1ccnc(C(F)(F)F)c1 (racemic) [Compound I-20, (rac)-2-(Trifluoromethyl)-N-(2-(2-(trifluoromethyl)pyridin-4-yl)-4,5,6,7-tetrahydro-2H-indazol-4-yl)isonicotinamide] | < 0.25
O=C(N[C@H]1CCCn2nc(-c3ccnc(C(F)(F)F)c3)nc21)c1cncc(C(F)(F)F)n1 [Compound I-215a, (S)-6-(Trifluoromethyl)-N-(2-(2-(trifluoromethyl)pyridin-4-yl)-5,6,7,8-tetrahydro-[1,2,4]triazolo[1,5-a]pyridin-8-yl)pyrazine-2-carboxamide] | < 0.25
Cn1nc2ccccc2c1C(=O)NC1CCCc2nn(-c3ccnc(C(F)(F)F)c3)cc21 (racemic) [Compound I-26, (rac)-2-Methyl-N-(2-(2-(trifluoromethyl)pyridin-4-yl)-4,5,6,7-tetrahydro-2H-indazol-4-yl)-2H-indazole-3-carboxamide] | 0.25 to 0.5
Cc1cc(C(=O)N[C@H]2CCCn3nc(-c4ccnc(C(F)(F)F)c4)cc32)nc(C2CC2)n1 [Compound I-402a] | < 0.25
CC(C)(O)c1cc(F)cc(C(=O)N[C@H]2CCCn3nc(-c4ccnc(C(F)(F)F)c4)cc32)c1 [Compound I-581a] | < 0.25
Cn1nc(C(F)(F)F)cc1C(=O)N[C@H]1CCCn2nc(-c3nnc(C(F)(F)F)o3)cc21 [Compound I-316a, (S)-1-Methyl-3-(trifluoromethyl)-N-(2-(5-(trifluoromethyl)-1,3,4-oxadiazol-2-yl)-4,5,6,7-tetrahydropyrazolo[1,5-a]pyridin-4-yl)-1H-pyrazole-5-carboxamide] | 0.5 to 1
O=C(N[C@H]1CCCn2nc(-c3ccnc(C(F)(F)F)c3)cc21)c1cc2n(n1)CCCO2 [Compound I-413a] | > 1
Cn1nc(C(F)(F)F)nc1C(=O)N[C@H]1CCCn2nc(-c3ccnc(C4CC4)c3)cc21 [Compound I-499a, (S)-N-(2-(2-Cyclopropylpyridin-4-yl)-4,5,6,7-tetrahydropyrazolo[1,5-a]pyridin-4-yl)-1-methyl-3-(trifluoromethyl)-1H-1,2,4-triazole-5-carboxamide] | < 0.25
(S)-3-Chloro-5-methyl-N-(2-(2-(trifluoromethyl)pyridin-4-yl)-2,4,5,6-tetrahydrocyclopenta[c]pyrazol-4-yl)benzamide [Compound I-129a] | < 0.25
Cn1nc(C(F)(F)F)cc1C(=O)NC1CCCc2nn(-c3ccnc(C(F)(F)F)c3)cc21 (racemic) [Compound I-4, (rac)-1-Methyl-3-(trifluoromethyl)-N-(2-(2-(trifluoromethyl)pyridin-4-yl)-4,5,6,7-tetrahydro-2H-indazol-4-yl)-1H-pyrazole-5-carboxamide] | < 0.25
CCOc1cc(-n2cc3c(n2)CCCC3NC(=O)c2ccc3ccccc3c2)ccn1 (racemic) [Compound I-30, (rac)-N-(2-(2-Ethoxypyridin-4-yl)-4,5,6,7-tetrahydro-2H-indazol-4-yl)-2-naphthamide] | 0.5 to 1
O=C(N[C@H]1CCCc2nn(-c3ccnc(C(F)(F)F)c3)cc21)c1cc(Cl)cc(C(F)(F)F)c1 [Compound I-2a, (S)-3-Chloro-5-(trifluoromethyl)-N-(2-(2-(trifluoromethyl)pyridin-4-yl)-4,5,6,7-tetrahydro-2H-indazol-4-yl)benzamide] | < 0.25

Compound | IC50 [µM]
COc1cncc(C(=O)N[C@H]2CCn3nc(-c4ccnc(C(F)(F)F)c4)cc32)n1 [Compound I-207a, (S)-6-Methoxy-N-(2-(2-(trifluoromethyl)pyridin-4-yl)-5,6-dihydro-4H-pyrrolo[1,2-b]pyrazol-4-yl)pyrazine-2-carboxamide] | < 0.25
CC(F)(F)c1cc(-c2cc3n(n2)CC[C@@H]3NC(=O)c2cnn(C(F)(F)F)c2)ccn1 [Compound I-538a, (S)-N-(2-(2-(1,1-Difluoroethyl)pyridin-4-yl)-5,6-dihydro-4H-pyrrolo[1,2-b]pyrazol-4-yl)-1-(trifluoromethyl)-1H-pyrazole-4-carboxamide] | < 0.25
CCOc1cc(F)cc(C(=O)N[C@H]2CCn3nc(-c4cc(OC)ncc4F)cc32)c1 [Compound I-574a, (S)-3-Ethoxy-5-fluoro-N-(2-(5-fluoro-2-methoxypyridin-4-yl)-5,6-dihydro-4H-pyrrolo[1,2-b]pyrazol-4-yl)benzamide] | < 0.25
O=C(N[C@H]1CCn2nc(-c3ccnc(C(F)(F)F)c3)cc21)c1cc2cccnn2c1 [Compound I-291a, (S)-N-(2-(2-(Trifluoromethyl)pyridin-4-yl)-5,6-dihydro-4H-pyrrolo[1,2-b]pyrazol-4-yl)pyrrolo[1,2-b]pyridazine-6-carboxamide] | < 0.25
N#Cc1cc(C(=O)N[C@H]2CCCn3nc(-c4ccnc(C(F)(F)F)c4)cc32)ccc1F [Compound I-343a, (S)-3-Cyano-4-fluoro-N-(2-(2-(trifluoromethyl)pyridin-4-yl)-4,5,6,7-tetrahydropyrazolo[1,5-a]pyridin-4-yl)benzamide] | < 0.25
COc1cc(C(=O)N[C@H]2CCCCn3nc(-c4ccnc(C(C)(F)F)c4)cc32)ccn1 [Compound I-273a] | < 0.25
O=C(N[C@H]1CCn2nc(-c3ccnc(C(F)(F)F)c3)cc21)C12CC(CC(F)(F)F)(C1)C2 [Compound I-583a, (S)-3-(2,2,2-Trifluoroethyl)-N-(2-(2-(trifluoromethyl)pyridin-4-yl)-5,6-dihydro-4H-pyrrolo[1,2-b]pyrazol-4-yl)bicyclo[1.1.1]pentane-1-carboxamide] | < 0.25
Cn1nc(C(F)(F)F)cc1C(=O)N[C@H]1CCCc2sc(-c3ccnc(C(F)(F)F)c3)nc21 [Compound I-80a] | 0.5 to 1
O=C(N[C@H]1CCCc2oc(-c3ccnc(C4CC4)c3)nc21)c1cc(C(F)(F)F)n(C(F)F)n1 [Compound I-130a, (S)-N-(2-(2-Cyclopropylpyridin-4-yl)-4,5,6,7-tetrahydrobenzo[d]oxazol-4-yl)-1-(difluoromethyl)-5-(trifluoromethyl)-1H-pyrazole-3-carboxamide] | < 0.25
CC(F)(F)c1cc(-c2nc3c(o2)CCC[C@@H]3NC(=O)c2cn(C(F)(F)F)nc2C(F)(F)F)ccn1 [Compound I-545a, (S)—N-(2-(2-(1,1-difluoroethyl)pyridin-4-yl)-4,5,6,7-tetrahydrobenzo[d]oxazol-4-yl)-1,3-bis(trifluoromethyl)-1H-pyrazole-4-carboxamide] | < 0.25
Cn1nc(C(F)(F)F)cc1C(=O)N[C@H]1CCCn2nc(-c3cnc(C(F)(F)F)o3)cc21 [Compound I-317a, (S)-1-Methyl-3-(trifluoromethyl)-N-(2-(2-(trifluoromethyl)oxazol-5-yl)-4,5,6,7-tetrahydropyrazolo[1,5-a]pyridin-4-yl)-1H-pyrazole-5-carboxamide] | 0.5 to 1
CCOc1cc(-n2cc3c(n2)CCCC[C@H]3NC(=O)c2cc(C(F)(F)F)nn2C)ccn1 [Compound I-360b] | > 1
O=C(N[C@H]1CCCn2nc(-c3ccnc(C(F)(F)F)c3)cc21)c1ccc2ccnn2c1 [Compound I-400a] | < 0.25
Cc1cc(-c2cc3n(n2)CCC[C@@H]3NC(=O)c2cc(C(F)(F)F)nn2C)cc(C)n1 [Compound I-433a] | > 1
COc1cc(-c2nc3c(o2)CCC[C@@H]3NC(=O)c2cccc(C#N)c2)ccn1 [Compound I-294a, (S)-3-Cyano-N-(2-(2-methoxypyridin-4-yl)-4,5,6,7-tetrahydrobenzo[d]oxazol-4-yl)benzamide] | < 0.25
Cc1cnc(C2CC2)cc1-c1cc2n(n1)CC[C@@H]2NC(=O)c1nc(C(F)(F)F)nn1C [Compound I-492a, (S)-N-(2-(2-Cyclopropyl-5-methylpyridin-4-yl)-5,6-dihydro-4H-pyrrolo[1,2-b]pyrazol-4-yl)-1-methyl-3-(trifluoromethyl)-1H-1,2,4-triazole-5-carboxamide] | < 0.25
